The subject of experiment [1] is Diabrotica virgifera virgifera and Agriotes lineatus. The experiment can be described thus: Field furrow application test, lodge rate of corn due to damage by Diabrotica virgifera virgifera and Agriotes lineatus (Examples 4-8, 10, 11). In kind it is in vivo. The note with it: 165 days after application, versus non-treatment section. From the text:
A chemical fertilizer (N:P:K=15:15:15) is applied to the soil surface of a cultivated land at 300 kg/ha, and the cultivated land is then plowed.
7 days after fertilization, for suppressing generation of weeds, the soil surface of the whole cultivated land is spray-treated with a mixed liquid containing thiencarbazone-methyl and isoxaflutole, each of which being a herbicide, and cyprosulfamide which is a safener at 150 L/ha so that the application amounts of thiencarbazone-methyl, isoxaflutole and cyprosulfamide are 9.2 g/ha, 23 g/ha and 15 g/ha, respectively. […]
17 days after application of clothianidin and tefluthrin, the number of plants of corn germinated is investigated, with central two rows of four rows of seeded furrows as an investigation section, for the treatment section and the non-treatment section. 165 days after application of clothianidin and tefluthrin, the number of plants of corn lodged due to damage by Diabrotica virgifera virgifera and Agriotes lineatus in the furrows of the treatment section and the non-treatment section, for which the number of plants of corn germinated is investigated, is investigated, a lodge rate is calculated in accordance with the following equation, and then an average lodge rate for the four investigation sections is determined. […]

The subject of the next experiment is Agriotes spp. The experiment can be described thus: Field furrow spray test, mortality of corn plants from damage by Agriotes spp. (Example 9). In kind it is in vivo. The note with it: 50 g/ha, furrow spray 100 L/ha, 34 days after treatment, average of four sections, non-treatment section 16.35. As to the method:
A land was ditched at intervals of 80 cm, a predetermined amount of a water-diluted liquid of an esfenvalerate emulsifiable concentrate (using 25 g/L of an EC preparation, trade name: Sumialpha 2.5 EC, manufactured by Philagro) or a water-diluted liquid of a lambda-cyhalothrin SC (using 100 g/L of a SC preparation, trade name: KAPATE ZEON, manufactured by SYNGENTA) was prepared so that the applied amount of an effective component was the amount described in Table 4, and the furrow was spray-treated with the liquid at a spray amount of 100 L/ha. Then, the furrow was seeded with corn (Zea Mays, variety name: Kubrik), and a soil on the side of the furrow was gathered together to close the furrow. A seeding density of corn was 87500 seeds/ha. They were defined as example sections 16 and 17.
For comparison, a non-treatment section, which was seeded with corn in the same manner as in the example sections except that a treatment with a chemical was not performed, was provided. […]
34 days after the treatment with a chemical, the number of plants of corn grown in each of the example sections 16 and 17 and the non-treatment section were investigated, a mortality of plants of corn died because of the damage by Agriotes spp. was calculated in accordance with the following equation, and then an average mortality of the four investigation sections was determined. […]

Turning to `CC1(C)[C@H](C(=O)O[C@H](C#N)c2cccc(Oc3ccccc3)c2)[C@@H]1/C=C(\Cl)C(F)(F)F` (racemic) [Lambda-cyhalothrin], the “Lodge rate (%)” value in experiment [1] (Example 11: water-diluted lambda-cyhalothrin SC in furrow, 100 g/ha) is given as “low lodge rate as compared to the non-treatment section”. In the experiment with Agriotes spp., the “Average mortality (%)” value was 3.35%.

Regarding `CC(C)[C@H](C(=O)O[C@H](C#N)c1cccc(Oc2ccccc2)c1)c1ccc(Cl)cc1` [Esfenvalerate], the “Lodge rate (%)” value in experiment [1] (Example 10: water-diluted Sumialpha 2.5 EC in furrow, esfenvalerate 100 g/ha) is “low lodge rate as compared to the non-treatment section”. The “Average mortality (%)” value in the experiment on Agriotes spp. was found to be 4.85%.

Values taken from patent US9439415B2, “Method for reducing damage by harmful organisms in corn cultivation” (priority 2012, dated 2016).
